Where a name gives a salt, the structure may show the parent alone. A value given as a limit tells only on which side of the number the result lay.

This assay has as its system MTT (mouse pheochromocytoma). Description: IC50 of cell viability (ATP content). Conditions: (24 or 48 h). The essentials: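 MTT mouse pheochromocytoma cells in white 1536-well plates were treated for 24 or 48 hrs with library compounds at 8 final concentrations from 0.5 nM to 46 µM. ATP content was measured with CellTiter-Glo luminescence, using positive-control wells as 100% and DMSO wells as 0%. IC50 came from a four-parameter logistic fit.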
Regarding `C/C(=C\c1csc(C)n1)[C@@H]1C[C@@H]2O[C@]2(C)CCC[C@H](C)[C@H](O)[C@@H](C)C(=O)C(C)(C)[C@@H](O)CC(=O)O1` [EPOTHILONE B], the “IC50 of cell viability” value was above 46 µM.

As for `CCOC(CN1CCN(CC(C)C(=O)c2ccccc2)CC1)c1ccccc1` (stereo unspecified) [EPRAZINONE HYDROCHLORIDE], the “IC50 of cell viability” value was above 46 µM. Then `N=C(N)NCCCC[C@@H]1NC(=O)CCSSC[C@@H](C(N)=O)NC(=O)[C@@H]2CCCN2C(=O)[C@H](Cc2c[nH]c3ccccc23)NC(=O)[C@H](CC(=O)O)NC(=O)CNC1=O` [EPTIFIBATIDE], with above 46 µM; and `C=C1CCC(O)C/C1=C/C=C1\CCC[C@]2(C)[C@@H]([C@H](C)/C=C/[C@H](C)C(C)C)CC[C@@H]12` (stereo partly specified) [ERGOCALCIFEROL], with above 46 µM.

Take `CC(CO)NC(=O)C1C=C2c3cccc4[nH]cc(c34)CC2N(C)C1` (stereo unspecified) [ERGONOVINE]: the “IC50 of cell viability” value is above 46 µM.

Take `CCC(=O)O[C@H]1C(O[C@@H]2C(C)[C@H](O[C@H]3C[C@@](C)(OC)C(O)C(C)O3)C(C)C(=O)OC(CC)[C@@](C)(O)C(O)[C@H](C)C(=O)C(C)C[C@]2(C)O)OC(C)CC1N(C)C.CCCCCCCCCCCCO[S+](=O)([O-])O` (stereo partly specified) [ERYTHROMYCIN ESTOLATE]: the “IC50 of cell viability” value was above 46 µM.

Turning to `CCC1OC(=O)C(C)[C@@H](O[C@H]2C[C@@](C)(OC)C(O)C(C)O2)C(C)[C@@H](O[C@@H]2OC(C)CC(N(C)C)C2O)[C@@](C)(O)CC(C)C(=O)[C@@H](C)C(O)[C@]1(C)O` (stereo partly specified) [ERYTHROMYCIN], the “IC50 of cell viability” value is above 46 µM. For the compound `CN(C)CCC[C@@]1(c2ccc(F)cc2)OCc2cc(C#N)ccc21.O=C(O)C(=O)O` [ESCITALOPRAM OXALATE], the “IC50 of cell viability” value was above 46 µM.

As to `CNC1(c2ccccc2Cl)CCCCC1=O` (stereo unspecified) [ESKETAMINUM], the “IC50 of cell viability” value was above 46 µM. In the case of `CC(=O)SCC(CC(=O)c1ccc(C)cc1)C(=O)O` (stereo unspecified) [ESONARIMOD], the “IC50 of cell viability” value was above 46 µM. Regarding `ClC1=CC=C2[N]3C=NN=C3C\N=C(\C4=CC=CC=C4)C2=C1` [ESTAZOLAM], the “IC50 of cell viability” value is above 46 µM. Consider `CC(=O)OC1CCC2C3CCc4cc(O)ccc4C3CCC12C` (stereo unspecified) [ESTRADIOL ACETATE], for which the “IC50 of cell viability” value is above 46 µM. In the case of `C[C@]12CC[C@@H]3c4ccc(OC(=O)c5ccccc5)cc4CC[C@H]3[C@@H]1CC[C@@H]2O` [ESTRADIOL BENZOATE], the “IC50 of cell viability” value is above 46 µM. Next, `C[C@]12CC[C@@H]3c4ccc(O)cc4CC[C@H]3[C@@H]1CCC2OC(=O)CCC1CCCC1` (stereo partly specified) [ESTRADIOL CYPIONATE]: above 46 µM; `CCCCC(=O)OC1CCC2C3CCc4cc(O)ccc4C3CC[C@]12C` (stereo partly specified) [ESTRADIOL VALERATE]: above 46 µM; `C[C@]12CC[C@@H]3c4ccc(OC(=O)N(CCCl)CCCl)cc4CC[C@@H]3[C@H]1CC[C@@H]2OP(=O)(O)O` [ESTRAMUSTINE PHOSPHATE]: above 46 µM. Turning to `CCCCCCCCCCCCCCCCCCOC[C@H](COP(=O)([O-])OCC[N+](C)(C)C)OC` [ET-18-OCH3], the “IC50 of cell viability” value was above 46 µM. Take `CCN(CC)CCOc1ccccc1C(=O)CCc1ccccc1` [ETAFENONE HYDROCHLORIDE]: the “IC50 of cell viability” value is above 46 µM.

In the case of `O=C(Cn1ccnc1[N+](=O)[O-])NCCO` [ETANIDAZOLE], the “IC50 of cell viability” value was above 46 µM. On to `CCC1(c2ccccc2)C(=O)N(COC)C(=O)N(COC)C1=O` [ETEROBARBUM], for which the “IC50 of cell viability” value was above 46 µM. Next, `C#C[C@]1(O)CC[C@H]2[C@@H]3CCc4cc(O)ccc4[C@H]3CC[C@@]21C` [ETHINYL ESTRADIOL]: above 46 µM; `CC\12CCC(=O)\C=C1CCC3C2CCC4(C)C3CCC4(O)C#C` (stereo unspecified) [ETHISTERONE]: above 46 µM. As to `C#C[C@]1(O)CC[C@H]2[C@@H]3CCC4=CC(=O)CCC4(C)[C@H]3CCC21C` (stereo partly specified) [ETHISTERONUM], the “IC50 of cell viability” value is above 46 µM. On to `CCOc1ccc2nc([S+](N)(=O)[O-])sc2c1` [ETHOXZOLAMIDE], for which the “IC50 of cell viability” value was above 46 µM.

Turning to `CCCCC/C=C/C/C=C/CCCCCCCC(=O)OCC` [ETHYL LINOLEATE], the “IC50 of cell viability” value is above 46 µM.

Take `CCOC(=O)c1cccnc1` [ETHYL NICOTINATE]: the “IC50 of cell viability” value is above 46 µM. Next, `CCOC(=O)c1ccccc1O` [ETHYL SALICYLATE]: above 46 µM; `CCOC1=C2O[C@H]3[C@@H](O)\C=C/[C@H]4[C@H]5CC(=C2[C@@]34CCN5C)C=C1` [ETHYLMORPHINE HYDROCHLORIDE]: above 46 µM; `CCC(C(=O)NC(N)=O)c1ccccc1` (stereo unspecified) [ETHYLPHENACEMIDE]: above 46 µM. Next, `C#C[C@]1(OC(C)=O)CC[C@H]2[C@@H]3CCC4=C[C@@H](OC(C)=O)CC[C@@H]4[C@H]3CC[C@@]21C` [ETHYNODIOL DIACETATE]: above 46 µM.

Consider `CC(O)(P(=O)(O)O)P(=O)(O)O` [ETIDRONATE DISODIUM], for which the “IC50 of cell viability” value was above 46 µM.

Consider `CCc1cc2c(s1)-n1c(C)nnc1CN=C2c1ccccc1Cl` [ETIZOLAM], for which the “IC50 of cell viability” value was above 46 µM. Consider `CC[C@]12CC(=C)[C@H]3[C@@H](CCC/4=C/C(=O)CC[C@H]34)[C@@H]1CC[C@@]2(O)C#C` [ETONOGESTREL], for which the “IC50 of cell viability” value was above 46 µM. Turning to `Cc1ccc(-c2ncc(Cl)cc2-c2ccc(S(C)(=O)=O)cc2)cn1` [ETORICOXIB], the “IC50 of cell viability” value is above 46 µM. On to `CCOC(=O)/C=C(C)/C=C/C=C(C)/C=C/c1c(C)cc(OC)c(C)c1C` [ETRETINATE], for which the “IC50 of cell viability” value is above 46 µM.

As for `CCC(N)Cc1c[nH]c2ccccc12` (stereo unspecified) [ETRYPTAMINUM], the “IC50 of cell viability” value was above 46 µM. As to `CO[C@H]1C[C@@H]2CC[C@@H](C)[C@@](O)(O2)C(=O)C(=O)N2CCCC[C@H]2C(=O)O[C@H]([C@H](C)C[C@@H]2CC[C@@H](OCCO)[C@H](OC)C2)CC(=O)[C@H](C)C=C(C)[C@@H](O)[C@@H](OC)C(=O)[C@H](C)C[C@H](C)/C=C/C=C/C=C1C` [EVEROLIMUS], the “IC50 of cell viability” value is above 46 µM. Then `CCCCCCOc1ccccc1C(N)=O` [EXALAMIDE], with above 46 µM; and `C[C@]12CCC3C(CC(=C)C\4=C\C(=O)\C=C/[C@@]34C)C1CCC2=O` (stereo partly specified) [EXEMESTANE], with above 46 µM; and `O=C1C(CCC(O)c2ccc(F)cc2)C(c2ccc(O)cc2)N1c1ccc(F)cc1` (stereo unspecified) [EZETIMIBE], with above 46 µM. Then `O=c1c2ccccc2[se]n1-c1ccccc1` [Ebselen], with above 46 µM. For the compound `CC[C@@]12CCCN3CCc4c(n(c5ccccc45)C(=O)C1)[C@H]32` [Eburnamonine (-)], the “IC50 of cell viability” value was above 46 µM. Turning to `CC[N+](C)(C)c1cccc(O)c1` [Edrophonium chloride], the “IC50 of cell viability” value is above 46 µM. Turning to `CCOC(=O)COc1ccc2c(=O)cc(-c3ccccc3)oc2c1` [Efloxate], the “IC50 of cell viability” value is above 46 µM.

Consider `CC1=C(C(=O)OCCN(Cc2ccccc2)c2ccccc2)C(c2cccc([N+](=O)[O-])c2)C(P2(=O)OCC(C)(C)CO2)=C(C)N1` (stereo unspecified) [Efonidipine], for which the “IC50 of cell viability” value was above 46 µM. For `OC(CN1CCC(Cc2ccc(F)cc2)CC1)c1ccc(Cl)cc1` (stereo unspecified) [Eliprodil], the “IC50 of cell viability” value was above 46 µM. As for `CC(NC(CCc1ccccc1)C(=O)O)C(=O)N1CCCC1C(=O)O` (stereo unspecified) [Enalapril acid], the “IC50 of cell viability” value is above 46 µM. Then `CCOC(=O)[C@H](CCc1ccccc1)N[C@@H](C)C(=O)N1CCC[C@H]1C(=O)O` [Enalaprila], with above 46 µM; and `COc1ccc(C(=O)Nc2ccccc2CCC2CCCCN2C)cc1` (stereo unspecified) [Encainide hydrochloride], with above 46 µM.

As to `CCN(CC)CCOc1ccc(/C(=C(/Cl)c2ccccc2)c2ccccc2)cc1` [Enclomifene], the “IC50 of cell viability” value was above 46 µM. With `CCN1\C=C(\C(O)=O)C(=O)C2=C1N=C(N3CCNCC3)C(=C2)F` [Enoxacin], the “IC50 of cell viability” value is above 46 µM. Then `CSC1=CC=C(C=C1)C(=O)\C2=C(/C)NC(=O)N2` [Enoximone], with above 46 µM; and `CCN(CC)C(=O)/C(C#N)=C/c1cc(O)c(O)c([N+](=O)[O-])c1` [Entacapone], with above 46 µM.

In the case of `CN1C=C(C2=CC=CC=C12)C3=C(/C(=O)NC\3=O)C4=CN(C5CCN(CC6=NC=CC=C6)CC5)C7=C4C=CC=C7` [Enzastaurin], the “IC50 of cell viability” value was above 46 µM.

For the compound `CC(/C=C1\SC(=S)N(CC(=O)O)C1=O)=C\c1ccccc1` [Epalrestat], the “IC50 of cell viability” value was above 46 µM. Next, `C[C@]12CC[C@@H]3c4ccc(O)cc4CC[C@H]3[C@@H]1C[C@H](O)C2O` (stereo partly specified) [Epiestriol]: above 46 µM; `COc1cc(C)nc(-n2nc(C)cc2OC)n1` [Epirizole]: above 46 µM; `C[C@@]12CC[C@H]3[C@@H](CC[C@@H]4C[C@H]5S[C@H]5C[C@]43C)[C@H]1CC[C@H]2O` [Epitiostanol]: above 46 µM.

In the case of `COC(=O)[C@@H]1CC2=CC(=O)CC[C@]2(C)[C@@]23O[C@@H]2C[C@@]2(C)[C@@H](CC[C@@]24CCC(=O)O4)[C@H]13` [Eplerenone], the “IC50 of cell viability” value is above 46 µM. Then `CCC(C)C1OC2(C=CC1C)CC1CC(CC=C(C)C(OC3CC(OC)C(OC4CC(OC)C(NC(C)=O)C(C)O4)C(C)O3)C(C)C=CC=C3COC4C(O)C(C)=CC(C(=O)O1)C34O)O2` (stereo unspecified) [Eprinomectin B1a], with above 46 µM.

Consider `CC(C)(C)NC(=O)[C@H]1CC[C@H]2[C@@H]3CC=C4C=C(C(=O)O)CC[C@@]4(C)[C@H]3CC[C@]12C` [Epristeride], for which the “IC50 of cell viability” value was above 46 µM.

These data come from the supplement of paper PMC3974653.
